Data from PMC12454493, “Insight on novel sulfamoylphenyl pyrazole derivatives as anticancer carbonic anhydrase inhibitors” (Molecular Diversity, 2024).

Columns and labels:
COLO 205 = test: NCI-60 one-dose SRB screen (Colon Cancer); assay type: cell-based; settings: Homo sapiens, single dose 10 µM, 48 h, read-out: Growth inhibition percent (GI %)
Protocol: (§1) The National Cancer Institute (NCI) Developmental Therapeutic Program (www.dtp.nci.nih.gov) selected the 20 novel synthesized compounds 4a-e, 5a-e, 6a-c, 9a-e, 10 and 11 to test for their anticancer activity at a single dose of 10 µM using SRB assay. […] Supplementary Data S3; Table S1 presents the detailed screening results of the most promising compounds. The preliminary screening’s detailed results for the remaining compounds are elucidated in the (Supplementary Data S3; Table S2).
(§2) The guidelines of the Drug Evaluation Branch’s protocol at the NCI in Bethesda served as the basis for the in vitro anticancer screening assays. at one dose 10 µM against a panel of 60 cancer cell lines. The human tumor cell lines used belonged to nine panels: leukemia, melanoma, lung, colon, CNS, ovarian, renal, prostate and breast cancers using the sulforhodamine B (SRB) assay in a 48 h drug exposure protocol.

HCC-2998 = test: NCI-60 one-dose SRB screen (Colon Cancer); assay type: cell-based; settings: Homo sapiens, single dose 10 µM, 48 h, read-out: Growth inhibition percent (GI %)
Protocol: as §1, §2

KM12 = test: NCI-60 one-dose SRB screen (Colon Cancer); assay type: cell-based; settings: Homo sapiens, single dose 10 µM, 48 h, read-out: Growth inhibition percent (GI %)
Protocol: as §1, §2

HCT-15 = test: NCI-60 one-dose SRB screen (Colon Cancer); assay type: cell-based; settings: Homo sapiens, single dose 10 µM, 48 h, read-out: Growth inhibition percent (GI %)
Protocol: as §1, §2

HCT-116 = test: NCI-60 one-dose SRB screen (Colon Cancer); assay type: cell-based; settings: Homo sapiens, single dose 10 µM, 48 h, read-out: Growth inhibition percent (GI %)
Protocol: as §1, §2

TK-10 = test: NCI-60 one-dose SRB screen (Renal Cancer); assay type: cell-based; settings: Homo sapiens, single dose 10 µM, 48 h, read-out: Growth inhibition percent (GI %)
Protocol: as §1, §2

ACHN = test: NCI-60 one-dose SRB screen (Renal Cancer); assay type: cell-based; settings: Homo sapiens, single dose 10 µM, 48 h, read-out: Growth inhibition percent (GI %)
Protocol: as §1, §2

UO-31 = test: NCI-60 one-dose SRB screen (Renal Cancer); assay type: cell-based; settings: Homo sapiens, single dose 10 µM, 48 h, read-out: Growth inhibition percent (GI %)
Protocol: as §1, §2

786-0 = test: NCI-60 one-dose SRB screen (Renal Cancer); assay type: cell-based; settings: Homo sapiens, single dose 10 µM, 48 h, read-out: Growth inhibition percent (GI %)
Protocol: as §1, §2

CAKI-1 = test: NCI-60 one-dose SRB screen (Renal Cancer); assay type: cell-based; settings: Homo sapiens, single dose 10 µM, 48 h, read-out: Growth inhibition percent (GI %)
Protocol: as §1, §2

A498 = test: NCI-60 one-dose SRB screen (Renal Cancer); assay type: cell-based; settings: Homo sapiens, single dose 10 µM, 48 h, read-out: Growth inhibition percent (GI %)
Protocol: as §1, §2

RXF 393 = test: NCI-60 one-dose SRB screen (Renal Cancer); assay type: cell-based; settings: Homo sapiens, single dose 10 µM, 48 h, read-out: Growth inhibition percent (GI %)
Protocol: as §1, §2

hCA XII = hCA XII (Homo sapiens, UniProt O43570); test: CA inhibitory activity, spectrophotometric p-NPA assay; assay type: biochemical; settings: p-NPA substrate, pH 7.5, 25 °C, triplicate; read-out: IC50 (µM) ± SD hCA XII
MDA-MB-231/ATCC = test: NCI-60 one-dose SRB screen (Breast Cancer); assay type: cell-based; settings: Homo sapiens, single dose 10 µM, 48 h, read-out: Growth inhibition percent (GI %)
Protocol: as §1, §2

MDA-MB-468 = test: NCI-60 one-dose SRB screen (Breast Cancer); assay type: cell-based; settings: Homo sapiens, single dose 10 µM, 48 h, read-out: Growth inhibition percent (GI %)
Protocol: as §1, §2

BT-549 = test: NCI-60 one-dose SRB screen (Breast Cancer); assay type: cell-based; settings: Homo sapiens, single dose 10 µM, 48 h, read-out: Growth inhibition percent (GI %)
Protocol: as §1, §2

T-47D = test: NCI-60 one-dose SRB screen (Breast Cancer); assay type: cell-based; settings: Homo sapiens, T47D, single dose 10 µM, 48 h, read-out: Growth inhibition percent (GI %)
Protocol: as §1, §2

HS 578T = test: NCI-60 one-dose SRB screen (Breast Cancer); assay type: cell-based; settings: Homo sapiens, single dose 10 µM, 48 h, read-out: Growth inhibition percent (GI %)
Protocol: as §1, §2

MCF-7 = test: NCI-60 one-dose SRB screen (Breast Cancer); assay type: cell-based; settings: Homo sapiens, MCF7, single dose 10 µM, 48 h, read-out: Growth inhibition percent (GI %)
Protocol: as §1, §2

UACC-62 = test: NCI-60 one-dose SRB screen (Melanoma); assay type: cell-based; settings: Homo sapiens, single dose 10 µM, 48 h, read-out: Growth inhibition percent (GI %)
Protocol: as §1, §2

MALME-3M = test: NCI-60 one-dose SRB screen (Melanoma); assay type: cell-based; settings: Homo sapiens, single dose 10 µM, 48 h, read-out: Growth inhibition percent (GI %)
Protocol: as §1, §2

LOX IMVI = test: NCI-60 one-dose SRB screen (Melanoma); assay type: cell-based; settings: Homo sapiens, single dose 10 µM, 48 h, read-out: Growth inhibition percent (GI %)
Protocol: as §1, §2

SK-MEL-2 = test: NCI-60 one-dose SRB screen (Melanoma); assay type: cell-based; settings: Homo sapiens, single dose 10 µM, 48 h, read-out: Growth inhibition percent (GI %)
Protocol: as §1, §2

SK-MEL-5 = test: NCI-60 one-dose SRB screen (Melanoma); assay type: cell-based; settings: Homo sapiens, single dose 10 µM, 48 h, read-out: Growth inhibition percent (GI %)
Protocol: as §1, §2

UACC-257 = test: NCI-60 one-dose SRB screen (Melanoma); assay type: cell-based; settings: Homo sapiens, single dose 10 µM, 48 h, read-out: Growth inhibition percent (GI %)
Protocol: as §1, §2

MDA-MB-435 = test: NCI-60 one-dose SRB screen (Melanoma); assay type: cell-based; settings: Homo sapiens, single dose 10 µM, 48 h, read-out: Growth inhibition percent (GI %)
Protocol: as §1, §2

SK-MEL-28 = test: NCI-60 one-dose SRB screen (Melanoma); assay type: cell-based; settings: Homo sapiens, single dose 10 µM, 48 h, read-out: Growth inhibition percent (GI %)
Protocol: as §1, §2

M14 = test: NCI-60 one-dose SRB screen (Melanoma); assay type: cell-based; settings: Homo sapiens, single dose 10 µM, 48 h, read-out: Growth inhibition percent (GI %)
Protocol: as §1, §2

DU-145 = test: NCI-60 one-dose SRB screen (Prostate Cancer); assay type: cell-based; settings: Homo sapiens, single dose 10 µM, 48 h, read-out: Growth inhibition percent (GI %)
Protocol: as §1, §2

PC-3 = test: NCI-60 one-dose SRB screen (Prostate Cancer); assay type: cell-based; settings: Homo sapiens, single dose 10 µM, 48 h, read-out: Growth inhibition percent (GI %)
Protocol: as §1, §2

Chain of hCA XII (O43570 25-354): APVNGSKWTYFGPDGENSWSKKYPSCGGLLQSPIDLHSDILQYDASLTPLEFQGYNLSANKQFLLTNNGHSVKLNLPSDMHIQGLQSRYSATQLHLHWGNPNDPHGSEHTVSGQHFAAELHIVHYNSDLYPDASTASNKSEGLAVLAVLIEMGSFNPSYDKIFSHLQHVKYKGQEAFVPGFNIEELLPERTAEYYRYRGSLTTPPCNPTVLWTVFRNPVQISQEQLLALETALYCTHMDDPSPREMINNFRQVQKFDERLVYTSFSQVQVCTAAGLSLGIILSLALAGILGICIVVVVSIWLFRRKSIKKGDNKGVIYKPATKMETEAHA

With `Cc1ccc(-c2nn(-c3ccc(S(N)(=O)=O)cc3)cc2C(=O)OCC(=O)Nc2ccc(S(N)(=O)=O)cc2)cc1` [Compound 4b, 2-Oxo-2-[(4-sulfamoylphenyl)amino] ethyl 1-(4-sulfamoylphenyl)-3-(p-tolyl)-1H-pyrazole-4-carboxylate] the inhibition at 10 µM (COLO 205) was < 5%, the inhibition at 10 µM (HCC-2998) was < 5% and the inhibition at 10 µM (KM12) was < 5%. The inhibition at 10 µM (HCT-15) was < 5%, the inhibition at 10 µM (HCT-116) was < 5% and the inhibition at 10 µM (TK-10) was < 5%. The inhibition at 10 µM (ACHN) was < 5%, the inhibition at 10 µM (UO-31) was 14.5% and the inhibition at 10 µM (786-0) was 9.87%. The inhibition at 10 µM (CAKI-1) was 15.2%, the inhibition at 10 µM (A498) was < 5% and the inhibition at 10 µM (RXF 393) was < 5%. For the same compound, the IC50 (hCA XII) was 0.17 ± 0.006 µM, the inhibition at 10 µM (MDA-MB-231/ATCC) was 6.64% and the inhibition at 10 µM (MDA-MB-468) was 18.6%. The inhibition at 10 µM (BT-549) was 6.7%, the inhibition at 10 µM (T-47D) was 17.5% and the inhibition at 10 µM (HS 578T) was 6.42%. For the same compound, the inhibition at 10 µM (MCF-7) was < 5%, the inhibition at 10 µM (UACC-62) was < 5% and the inhibition at 10 µM (MALME-3M) was < 5%. For the same compound, the inhibition at 10 µM (LOX IMVI) was < 5%, the inhibition at 10 µM (SK-MEL-2) was 8.94% and the inhibition at 10 µM (SK-MEL-5) was < 5%. The inhibition at 10 µM (UACC-257) was 5.42%, the inhibition at 10 µM (MDA-MB-435) was < 5% and the inhibition at 10 µM (SK-MEL-28) was < 5%. For the same compound, the inhibition at 10 µM (M14) was < 5%, the inhibition at 10 µM (DU-145) was < 5% and the inhibition at 10 µM (PC-3) was < 5%.
